Laboratory results as given in PubChem BioAssay AID248 (DTP/NCI, 2004).
“And” between values parts separate entries of the source, which are not always exact repeats. Identical values can stand only once. Inconclusive results and toxic doses are left out. No stated cut-off is given here; in the data, active means T/C of 150% or more; inactive means T/C below 125%.

Tested on: L1210 leukemia ip in BDF1 mice, survival T/C
Experiment: NCI In Vivo Anticancer Drug Screen. Data for tumor model L1210 Leukemia (intraperitoneal) in B6D2F1 (BDF1) mice
Settings: endpoint: mean survival time, higher = longer survival
In short: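 In this screen, tumor-bearing mice given compound are compared to those given vehicle, and their survival values are reported as a treated-to-control quotient.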

[1] = dose: 100.0 mg/kg/injection, schedule: Q01DX009 (ip), vehicle: saline with Tween-80
[2] = dose: 100.0 mg/kg/injection, schedule: Q04DX003 (ip), vehicle: Klucel (hydroxypropylcellulose) (HPC)
[3] = dose: 200.0 mg/kg/injection, schedule: Q01DX009 (ip), vehicle: saline with Tween-80
[4] = dose: 200.0 mg/kg/injection, schedule: Q04DX003 (ip), vehicle: Klucel (hydroxypropylcellulose) (HPC)
[5] = dose: 400.0 mg/kg/injection, schedule: Q01DX009 (ip), vehicle: saline with Tween-80
[6] = dose: 400.0 mg/kg/injection, schedule: Q04DX003 (ip), vehicle: Klucel (hydroxypropylcellulose) (HPC)
[7] = dose: 100.0 mg/kg/injection, schedule: Q01DX009 (sc), vehicle: olive oil, sesame oil, peanut oil
[8] = dose: 100.0 mg/kg/injection, schedule: Q04DX003 (sc), vehicle: olive oil, sesame oil, peanut oil
[9] = dose: 200.0 mg/kg/injection, schedule: Q04DX003 (sc), vehicle: olive oil, sesame oil, peanut oil
[10] = dose: 100.0 mg/kg/injection, schedule: Q01DX001 (ip), vehicle: Klucel (hydroxypropylcellulose) (HPC)
[11] = dose: 200.0 mg/kg/injection, schedule: Q01DX001 (ip), vehicle: Klucel (hydroxypropylcellulose) (HPC)
[12] = dose: 400.0 mg/kg/injection, schedule: Q01DX001 (ip), vehicle: Klucel (hydroxypropylcellulose) (HPC)
[13] = dose: 100.0 mg/kg/injection, schedule: Q01DX009 (ip), vehicle: Klucel (hydroxypropylcellulose) (HPC)
[14] = dose: 200.0 mg/kg/injection, schedule: Q01DX009 (ip), vehicle: Klucel (hydroxypropylcellulose) (HPC)
[15] = dose: 400.0 mg/kg/injection, schedule: Q01DX009 (ip), vehicle: Klucel (hydroxypropylcellulose) (HPC)
[16] = dose: 50.0 mg/kg/injection, schedule: Q04DX002 (ip), vehicle: Klucel (hydroxypropylcellulose) (HPC)
[17] = dose: 100.0 mg/kg/injection, schedule: Q04DX002 (ip), vehicle: Klucel (hydroxypropylcellulose) (HPC)

Measured: T/C

CCOC(=O)C(=O)CC(=O)/C=C/c1ccccc1
inactive: [1] 96 % of control | [2] 101 % of control | [3] 101 % of control | [4] 98 % of control | [5] 98 % of control | [6] 101 % of control

CCOC(=O)c1ccc(NC(=S)Nc2ncccc2C)cc1
inactive: dose: 100.0 mg/kg/injection, schedule: Q04DX002 (ip), vehicle: saline with Tween-80 103 % of control | dose: 200.0 mg/kg/injection, schedule: Q04DX002 (ip), vehicle: saline with Tween-80 103 % of control | dose: 400.0 mg/kg/injection, schedule: Q04DX002 (ip), vehicle: saline with Tween-80 95 % of control

CC(C)COC(=O)c1cccc2c1-c1ccccc1C2=O
inactive: dose: 100.0 mg/kg/injection, schedule: Q01DX001 (ip), vehicle: other 96 % of control | dose: 200.0 mg/kg/injection, schedule: Q01DX001 (ip), vehicle: other 87 % of control | dose: 400.0 mg/kg/injection, schedule: Q01DX001 (ip), vehicle: other 98 % of control

c1ccc(C2CCCCO2)cc1 (configuration not stated)
inactive: [1] 94 % of control | [3] 100 % of control | [5] 88 % of control

CCCCCC[As](=O)(O)O
inactive: dose: 1.5 mg/kg/injection, schedule: Q01DX001 (ip), vehicle: carboxymethylcellulose (CMC) 98 % of control | dose: 3.0 mg/kg/injection, schedule: Q01DX001 (ip), vehicle: carboxymethylcellulose (CMC) 93 % of control | dose: 6.0 mg/kg/injection, schedule: Q01DX001 (ip), vehicle: carboxymethylcellulose (CMC) 102 % of control

O=NN(CCCl)C(=O)NC(=O)NCCCl
inactive: dose: 1.0 mg/kg/injection, schedule: Q01DX001 (ip), vehicle: carboxymethylcellulose (CMC) 112 % of control | dose: 2.0 mg/kg/injection, schedule: Q01DX001 (ip), vehicle: carboxymethylcellulose (CMC) 118 % of control | dose: 4.0 mg/kg/injection, schedule: Q01DX001 (ip), vehicle: carboxymethylcellulose (CMC) 122 % of control | dose: 18.0 mg/kg/injection, schedule: Q01DX001 (ip), vehicle: carboxymethylcellulose (CMC) 119 % of control

CC(C(O)c1ccc(Br)cc1)C(O)(C(F)(F)F)C(F)(F)F (configuration not stated)
inactive: dose: 100.0 mg/kg/injection, schedule: Q01DX009 (ip), vehicle: other 111 % of control | dose: 200.0 mg/kg/injection, schedule: Q01DX009 (ip), vehicle: other 97 % of control | dose: 400.0 mg/kg/injection, schedule: Q01DX009 (ip), vehicle: other 103 % of control

O=C(O)C(O)c1cccc(Cl)c1 (configuration not stated)
inactive: dose: 75.0 mg/kg/injection, schedule: Q01DX001 (ip), vehicle: acetone 94 % of control | dose: 150.0 mg/kg/injection, schedule: Q01DX001 (ip), vehicle: acetone 94 % of control

Cc1ccccc1Oc1ccccc1N
inactive: [7] 101 % of control | [8] 110 % of control | dose: 200.0 mg/kg/injection, schedule: Q01DX009 (sc), vehicle: olive oil, sesame oil, peanut oil 101 % of control | [9] 94 % of control | dose: 400.0 mg/kg/injection, schedule: Q01DX009 (sc), vehicle: olive oil, sesame oil, peanut oil 97 % of control | dose: 400.0 mg/kg/injection, schedule: Q04DX003 (sc), vehicle: olive oil, sesame oil, peanut oil 116 % of control

NNC(=O)C1C2CCCCC21 (configuration not stated)
inactive: dose: 100.0 mg/kg/injection, schedule: Q04DX003 (ip), vehicle: saline with Tween-80 107 % of control

CC(=O)c1ccc(C(=O)NCCCc2c(-c3ccccc3)nc(N)[nH]c2=O)cc1
inactive: [10] 94 % of control | [11] 94 % of control | [12] 96 % of control

O=C1CC(c2ccccc2)=NCCN1
inactive: [13] 97 % of control | [14] 95 % of control | [15] 114 % of control

Clc1cc(Cl)c2nc(Cl)c3ccccc3c2c1
inactive: [13] 100 % of control | [2] 95 % of control | [14] 92 % of control | [4] 90 % of control | [15] 100 % of control | [6] 93 % of control

[CH3][Sn]([CH3])([CH3])[O]C(=O)CCl
inactive: dose: 0.78 mg/kg/injection, schedule: Q01DX009 (ip), vehicle: Klucel (hydroxypropylcellulose) (HPC) 97 % of control | dose: 0.78 mg/kg/injection, schedule: Q04DX002 (ip), vehicle: Klucel (hydroxypropylcellulose) (HPC) 97 % of control | dose: 1.56 mg/kg/injection, schedule: Q01DX009 (ip), vehicle: Klucel (hydroxypropylcellulose) (HPC) 87 % of control | dose: 1.56 mg/kg/injection, schedule: Q04DX002 (ip), vehicle: Klucel (hydroxypropylcellulose) (HPC) 93 % of control | dose: 3.12 mg/kg/injection, schedule: Q04DX002 (ip), vehicle: Klucel (hydroxypropylcellulose) (HPC) 93 % of control

COc1ccccc1/C=C/C(=O)O
inactive: dose: 25.0 mg/kg/injection, schedule: Q04DX002 (ip), vehicle: Klucel (hydroxypropylcellulose) (HPC) 98 % of control | [16] 100 % of control | [17] 88 % of control

CCOC(=O)c1nc(N)[nH]c(=O)c1CCCCc1ccccc1
inactive: dose: 150.0 mg/kg/injection, schedule: Q01DX001 (ip), vehicle: saline with Tween-80 87 % of control | dose: 300.0 mg/kg/injection, schedule: Q01DX001 (ip), vehicle: saline with Tween-80 89 % of control

Cc1c2ccc3ccccc3c2cc2cccc(Cl)c12
inactive: [10] 97 % of control | [11] 98 % of control | [12] 101 % of control

CC=NCc1ccccc1
inactive: dose: 50.0 mg/kg/injection, schedule: Q01DX009 (sc), vehicle: olive oil, sesame oil, peanut oil 98 % of control | [7] 114 % of control | [8] 105 % of control | [9] 98 % of control

CN(C)c1ccc(/C=C\c2ccnc3ccccc23)cc1
inactive: dose: 10.0 mg/kg/injection, schedule: Q01DX Z (ip), vehicle: methylcellulose (MC) 98 % of control | dose: 18.0 mg/kg/injection, schedule: Q01DX010 (ip), vehicle: saline 93 % of control and 102 % of control | dose: 27.0 mg/kg/injection, schedule: Q01DX010 (ip), vehicle: saline 95 % of control and 102 % of control | dose: 40.0 mg/kg/injection, schedule: Q01DX010 (ip), vehicle: saline 101 % of control and 91 % of control | dose: 50.0 mg/kg/injection, schedule: Q01DX001 (ip), vehicle: carboxymethylcellulose (CMC) 106 % of control | dose: 60.0 mg/kg/injection, schedule: Q01DX010 (ip), vehicle: saline 86 % of control and 90 % of control | dose: 100.0 mg/kg/injection, schedule: Q01DX001 (ip), vehicle: carboxymethylcellulose (CMC) 97 % of control | dose: 200.0 mg/kg/injection, schedule: Q01DX001 (ip), vehicle: carboxymethylcellulose (CMC) 89 % of control | dose: 400.0 mg/kg/injection, schedule: Q01DX001 (ip), vehicle: carboxymethylcellulose (CMC) 101 % of control

O=C(O)c1ccc(NCO)cc1
inactive: dose: 100.0 mg/kg/injection, schedule: Q04DX003 (ip), vehicle: acetone 94 % of control | dose: 200.0 mg/kg/injection, schedule: Q04DX003 (ip), vehicle: acetone 102 % of control | dose: 400.0 mg/kg/injection, schedule: Q04DX003 (ip), vehicle: acetone 108 % of control

COC1OC(C2N(c3ccccc3)CCN2c2ccccc2)=CC(OC(C)=O)C1OC(C)=O (configuration not stated)
inactive: [13] 86 % of control | [15] 90 % of control

O=C(O)C1C2OC3C(OC(=O)C31)C2Br (configuration not stated)
inactive: [16] 107 % of control | [13] 89 % of control | [17] 104 % of control | [2] 101 % of control | [14] 91 % of control | dose: 200.0 mg/kg/injection, schedule: Q04DX002 (ip), vehicle: Klucel (hydroxypropylcellulose) (HPC) 100 % of control | [4] 92 % of control | [15] 88 % of control | dose: 400.0 mg/kg/injection, schedule: Q04DX002 (ip), vehicle: Klucel (hydroxypropylcellulose) (HPC) 96 % of control | [6] 93 % of control
